Assay results published in patent US8772495B2, “5-lipoxygenase-activating protein inhibitor” (Panmira Pharmaceuticals, LLC, priority 2008, dated 2014).
Entries after “also recorded” stand apart in the source; their conditions may differ. Read-outs that look alike come from different tables or passages of the source.

Experiments:
[1] = Liquid formulations for oral solutions/suspensions; format: physicochemical; conditions: below pH values of about 9-10
Procedure: Values of pH reported were estimated based on pH indicating strips. […] Accordingly, provided in certain embodiments herein were formulations having a pH above about 9, above about 10 or of about 10. In certain embodiments, the formulation was buffered at a pH of about 10. All formulations prepared were sonicated for about 10 minutes.

[2] = test system: whole blood ionophore-stimulated leukotriene LTB4; experiment: Phase I study: ex vivo ionophore-stimulated LTB4; format: in vivo, human; conditions: in vivo
Description: Study Design: Single center, double-blind, randomized, placebo-controlled, single ascending dose followed by multiple ascending dose study.
Sample Size: (1) Single Dose Phase: eight (8) subjects (6 active, 2 placebo) per dose level; up to 5 dose levels are planned (a total of 40 subjects if all 5 dose levels are completed); and (2) Multiple Dose Phase: eight (8) subjects (6 active, 2 placebo) per dose level; up to 4 dose levels are planned (a total of 32 subjects if all 4 dose levels are completed).
Formulations: Compound 2 was supplied as an oral powder for reconstitution. Placebo solution matched. […] The placebo differed only in the absence of the active.
The following dosing cohorts were used:
Routes of Administration: All doses were administered orally with approximately 100 mL of water rinse. Subjects were fasted for at least 8 hours prior to dosing and for 2 hours after dosing. For BID dosing in the Multiple Dose Phase, when applicable, subjects were fasted for at least 2 hours prior to the second daily dose.
Plasma concentrations of Compound 1 were determined using a validated LC/MS method. Whole blood ionophore-stimulated leukotriene LTB4 and urinary LTE4 production were assayed by ELISA and mass spectrometry, respectively.
Analysis of Samples: Concentrations of Compound 1 was determined in plasma samples collected from subjects. Similarly, concentrations of LTB4 in plasma and urinary LTE4 were determined in blood and urine samples collected.

[3] = Gravimetric vapour sorption (GVS); format: physicochemical; conditions: for XRPD pattern after the GVS experiment: after full sorption/desorption cycle; for water adsorbed (GVS): at 90% RH
Procedure: Sorption isotherms were obtained using a Hiden IGASorp moisture sorption analyser, controlled by CFRSorp software. The sample temperature was maintained at 25° C. by a Huber re-circulating water bath. The humidity was controlled by mixing streams of dry and wet nitrogen, with a total flow rate of 250 ml. min^−1. The relative humidity was measured by a calibrated Vaisala RH probe (dynamic range of 0-95% RH), located near the sample. The weight change, (mass relaxation) of the sample as a function of % RH was constantly monitored by the microbalance (accuracy ±0.001 mg).
Typically 10-20 mg of sample was placed in a tared mesh stainless steel basket under ambient conditions. The sample was loaded and unloaded at 40% RH and 25° C. (typical room conditions).
A moisture sorption isotherm was performed as outlined below (2 scans giving 1 complete cycle). The standard isotherm was performed at 25° C. at 10% RH intervals over a 0-90% RH range.
The software uses a least squares minimisation procedure together with a model of the mass relaxation, to predict an asymptotic value. The measured mass relaxation value must be within 5% of that predicted by the software, before the next % RH value is selected. The minimum equilibration time was set to 1 hour and the maximum to 4 hours.

[4] = Physical and chemical stability of polymorphs (storage, humidity chamber); format: physicochemical; conditions: for XRPD pattern after one week stability study: 40° C. and 75% RH, one week in humidity chamber
[5] = Oral dosing of amorphous phase A and Form C in rats; format: in vivo
[6] = female, CD-1, mouse, in vivo, po, 250 mg/kg/day, 4 days
Procedure: Twenty-four hours following the final drug administration mice were placed into an enclosed Plexiglas chamber and exposed to CO2 for a period of 30-60 seconds or until breathing ceased. They were then removed subject to cervical dislocation and blood taken via a cardiac puncture. Mice were next placed in a supine position and a midline incision made. All organs were inspected and the livers removed by careful dissection. Liver weights were recorded as well as any gross abnormalities.

[7] = Thermodynamic aqueous solubility by HPLC; format: physicochemical; conditions: water, 25° C.
Procedure: The suspension was equilibrated at 25° C. for 24 hours then the pH was measured. The suspension was then filtered through a glass fibre C filter into a 96 well plate. […] Quantitation was by HPLC with reference to a standard solution of approximately 0.1 mg.ml^−1 in DMSO. Different volumes of the standard, diluted and undiluted sample solutions were injected.
Analysis was performed on an Agilent HP1100 series system equipped with a diode array detector and using ChemStation software vB.02.01-SR1.

CYP2C19 = CYP2C19 (Homo sapiens (Human), UniProt P33261); experiment: Extracellular cytochrome P450 inhibition (microsomes); format: in vitro ADME; conditions: mephenytoin 4′-hydroxylation
Chain of CYP2C19 (P33261 whole entry): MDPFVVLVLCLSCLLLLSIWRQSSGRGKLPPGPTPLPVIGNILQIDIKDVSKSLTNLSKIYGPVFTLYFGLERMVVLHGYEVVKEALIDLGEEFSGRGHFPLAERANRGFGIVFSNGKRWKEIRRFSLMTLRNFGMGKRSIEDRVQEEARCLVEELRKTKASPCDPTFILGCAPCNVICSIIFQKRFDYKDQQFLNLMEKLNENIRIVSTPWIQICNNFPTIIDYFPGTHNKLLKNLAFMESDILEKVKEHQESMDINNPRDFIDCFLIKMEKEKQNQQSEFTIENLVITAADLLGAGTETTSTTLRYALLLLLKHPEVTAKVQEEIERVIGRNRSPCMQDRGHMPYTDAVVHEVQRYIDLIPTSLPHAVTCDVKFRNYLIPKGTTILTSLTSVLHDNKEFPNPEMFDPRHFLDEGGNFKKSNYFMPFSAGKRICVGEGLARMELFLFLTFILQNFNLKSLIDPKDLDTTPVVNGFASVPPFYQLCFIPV
Description: Final solvent concentrations were 1% (v/v) or less.

With `CCOc1ccc(-c2ccc(Cn3c(CC(C)(C)C(=O)O)c(SC(C)(C)C)c4cc(OCc5ccc(C)cn5)ccc43)cc2)cn1` [Compound 1, 3-[3-(tert-butylsulfanyl)-1-[4-(6-ethoxy-pyridin-3-yl)benzyl]-5-(5-methyl-pyridin-2-yl-methoxy)-1H-indol-2-yl]-2,2-dimethylpropanoic acid] as the molecule, how does the “solubility in certain solvent systems” value [1] read?
The value was “sparingly soluble”.

What about the “plasma concentration at complete inhibition of ionophore-stimulated LTB4 production” value [2] of the same molecule?
Its value is 1000 to 1500 ng/mL.

What does the source list for `CCOc1ccc(-c2ccc(Cn3c(CC(C)(C)C(=O)[O-])c(SC(C)(C)C)c4cc(OCc5ccc(C)cn5)ccc43)cc2)cn1.[Na+]` [Form C, sodium 3-[3-(tert-butylsulfanyl)-1-[4-(6-ethoxy-pyridin-3-yl)benzyl]-5-(5-methyl-pyridin-2-yl-methoxy)-1H-indol-2-yl]-2,2-dimethylpropionate]?
hygroscopicity [3]: non-hygroscopic; also recorded: nonhygroscopic; XRPD pattern after the GVS experiment ([3]; listed as polymorph Form C): No changes were observed; water adsorbed (GVS) [3]: < 9%; water adsorbed (GVS) ([3]; listed as polymorph Form C): 8.2%; hygroscopicity ([3]; listed as polymorph Form C): significantly less hygroscopic than the amorphous material; physical and chemical stability [4]: physically and chemically stable; physical and chemical stability ([4]; 5° C., 25° C./60% RH and 40° C./75% RH for at least one month): physically and chemically stable; XRPD pattern after one week stability study ([4]; listed as polymorph Form C): remains unchanged; plasma exposures after oral dosing [5]: equivalent plasma exposures

What does the source list for `CC(c1cc2ccccc2s1)N(O)C(N)=O` (centres unmarked) [Zileuton, zileuton, reference compound]?
Liver weight [6]: 1.6 ± 0.2; Liver weight (% body weight) [6]: 5.5 % body weight; liver weight change as compared to vehicle control [6]: 31.0%

For `CCOc1ccc(-c2ccc(Cn3c(CC(C)(C)C(=O)[O-])c(SC(C)(C)C)c4cc(OCc5ccc(C)cn5)ccc43)cc2)cn1.[Na+]` [Amorphous Phase A, sodium 3-[3-(tert-butylsulfanyl)-1-[4-(6-ethoxy-pyridin-3-yl)benzyl]-5-(5-methyl-pyridin-2-yl-methoxy)-1H-indol-2-yl]-2,2-dimethylpropionate], which hygroscopicity [3] is on record?
The hygroscopicity was “hygroscopic”.

And the “XRPD pattern after the GVS experiment” value [3]?
Its value is “No changes were observed”.

And the “water adsorbed (GVS)” value [3]?
Its value is “more than 22%”.

What about the “water adsorbed (GVS)” value ([3]; listed as Amphorous Phase A) of the same molecule?
The value was “more than 20%”.

What about the hygroscopicity ([3]; listed as Amphorous Phase A) of the same molecule?
The hygroscopicity was “hygroscopic”.

What about the “XRPD pattern after one week stability study” value [4] of the same molecule?
The value was “remains amorphous”.

What about the “physical and chemical stability” value ([4]; listed as Amphorous Phase A) of the same molecule?
The value was “chemically stable”.

What about the Concentration of filtrate ([7]; 24 hours) of the same molecule?
Its Concentration of filtrate is >10 mg/mL of free base.

What about the “Appearance of mixture after equilibration for 24 hours” value ([7]; listed as Compound 2 Phase A) of the same molecule?
The value was “Suspension”.

And the “pH of unfiltered saturated solution” value ([7]; listed as Compound 2 Phase A)?
Its value is 9.14.

And the “plasma exposures after oral dosing” value [5]?
Its value is “equivalent plasma exposures”.

Which results are given for `CCOc1ccc(-c2ccc(Cn3c(CC(C)(C)C(=O)[O-])c(SC(C)(C)C)c4cc(OCc5ccc(C)cn5)ccc43)cc2)cn1.[Na+]` [Solvated Form B, sodium 3-[3-(tert-butylsulfanyl)-1-[4-(6-ethoxy-pyridin-3-yl)benzyl]-5-(5-methyl-pyridin-2-yl-methoxy)-1H-indol-2-yl]-2,2-dimethylpropionate]?
hygroscopicity [3]: hygroscopic; XRPD pattern after the GVS experiment ([3]; listed as Polymorph Form B): becomes almost totally amorphous; water adsorbed (GVS) [3]: more than 30%; water adsorbed (GVS) ([3]; listed as Polymorph Form B): more than 30%; hygroscopicity ([3]; listed as Polymorph Form B): hygroscopic; physical and chemical stability [4]: physically and chemically stable

With `CCC1(c2ccccc2)C(=O)NC(=O)N(Cc2ccccc2)C1=O` (single isomer, unassigned; (-)) [(−)-N-3-benzyl-phenobarbital, reference compound] as the molecule, how does the IC50 (CYP2C19) read?
Its IC50 is 2.8 µM.
